Experimental data: patent publication US12612403B2, “Nitrogen-containing heterocyclic derivative inhibitor, and preparation method therefor and use thereof” (SHANGHAI HANSOH BIOMEDICAL CO., LTD., priority 2024, dated 2026)

What was measured:
[1] = system: hyperlipidemia animal model of B6-hPCSK9 transgenic mice; test: In vivo pharmacodynamic study in hyperlipidemia model of B6-hPCSK9 transgenic mice (LDL-C, TC, plasma PCSK9); design: species or system B6-hPCSK9 transgenic C57 mice; details: PO administration, 10 mpk, Day 14, B6-hPCSK9 transgenic mice on high-fat feed, normalized to vehicle group
Description: 1. Experimental objective: The compounds of the present disclosure were evaluated for in vivo pharmacodynamics in a hyperlipidemia animal model of B6-hPCSK9 transgenic mice.
2.1 Animals: B6-hPCSK9 transgenic C57 mice, 6-8 weeks old, male, purchased from Jiangsu GemPharmatech Co., Ltd.
2.2 Animal model: After delivery to a barrier system, the animals were given one week for acclimatization and began to feed on the high-fat feed. The body weight and feed weight were weighed once a week, and the body weight and food intake thereof were recorded.
2.3 Grouping and administration • a. The animals were grouped by a random grouping method. • c. According to the grouping results, administration with the test drug was started (mode of administration: oral administration; administration volume: 10 mL/kg; frequency of administration: once/day or single administration; administration cycle: 21 days; vehicle: 10% Solutol HS 15/90% Saline). Test drug: Compounds of the present disclosure, made in house. • d. After the test drug was administered, the body weight and feed weight were weighed twice a week and blood was taken once a week. • e. The data was processed with software such as Excel. […] PCSK9 in plasma was detected by ELISA.

PCSK9 protein = target: T1, PCSK9 protein (Homo sapiens, UniProt Q8NBP7); test: Binding ability to PCSK9 protein (HTRF); details: PCSK9-His, Alexa Fluor 647 probe compound
T1 construct: purchased Sino biology (Sino Biological) 29698-H08H
Description: 1. Experimental objective: To detect the action of compounds to bind PCSK9 protein by an HTRF method.
3. Experimental data processing method: Four-parameter log(inhibitor) vs. response—Variable slope (four parameters) in XLit was used to perform non-linear fitting of the compound concentration and the corresponding inhibition rate, and IC50 was calculated.

[2] = Pharmacokinetic determination in mice (PO 5 mg/kg, IV 1 mg/kg); format: in vivo, C57BL/6J mice; details: male, C57BL/6J, mouse, plasma, C57 mice, PO administration, 5 mpk; for AUC(0-inf): read-out: Area under the curve AUC0-∞; for half-life: read-out: Half-life t1/2 (converted); for MRT: read-out: Mean residence time MRT; for Cmax: read-out: Plasma concentration Cmax; for Tmax: read-out: Time to peak tmax
Summary of the method: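 Fasted male C57BL/6J mice (n=3 per route) dosed PO 5 mg/kg in 10% Solutol HS15 or IV 1 mg/kg in 5% DMSO/10% Solutol HS15/85% PBS. Orbital blood sampled 0.083 (IV) to 24 h; plasma measured by LC-MS/MS, parameters by WinNonlin.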

T1 sequence (Q8NBP7 153-692): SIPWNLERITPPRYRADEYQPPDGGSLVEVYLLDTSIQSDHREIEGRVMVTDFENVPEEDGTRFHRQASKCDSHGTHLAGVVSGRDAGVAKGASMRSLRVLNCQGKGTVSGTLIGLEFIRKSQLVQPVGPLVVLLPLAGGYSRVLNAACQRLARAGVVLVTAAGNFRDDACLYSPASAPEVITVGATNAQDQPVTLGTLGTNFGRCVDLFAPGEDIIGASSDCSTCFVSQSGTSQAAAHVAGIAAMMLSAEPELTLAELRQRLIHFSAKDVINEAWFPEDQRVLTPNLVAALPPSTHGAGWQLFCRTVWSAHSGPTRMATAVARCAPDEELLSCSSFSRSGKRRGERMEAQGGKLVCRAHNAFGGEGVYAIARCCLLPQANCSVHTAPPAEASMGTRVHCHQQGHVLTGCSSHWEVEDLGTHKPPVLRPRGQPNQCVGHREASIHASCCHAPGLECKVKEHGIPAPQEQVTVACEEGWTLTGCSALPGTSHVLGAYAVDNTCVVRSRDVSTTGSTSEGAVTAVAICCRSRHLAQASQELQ

Row | SMILES | LDL-C change vs vehicle (%), Day 14 [1] [%] | IC50 (PCSK9 protein) [nM] | AUC(0-inf) [2] [ng·h/mL] | half-life [2] [h] | MRT [2] [h] | Cmax [2] [ng/mL] | Tmax [2] [h]
1 | O=C1c2ncccc2CN1c1cnc(N[C@H]2CC[C@H](Nc3nc4cc(OC(F)F)ccn4n3)C2)c(F)c1 [Example 151] | −31.09 | 8.1 | 11300 | 1.4 | 2.3 | 3460 | 0.5
2 | O=c1nc(O)ccn1-c1ccc(N[C@H]2CC[C@H](Nc3nc4cc(C(F)(F)F)ccn4n3)C2)nc1 [Example 78, 4-hydroxy-1-(6-(((1S,3S)-3-((7-(trifluoromethyl)-[1,2,4]triazolo[1,5-a]pyridin-2-yl)amino)cyclopentyl)amino)pyridin-3-yl)pyrimidin-2(1H)-one] | −37.98 | 10.1 | 14000 | 3.6 | 1.7 | 7860 | 0.25
3 | O=c1nc(O)ccn1-c1cnc(N[C@H]2CC[C@H](Nc3nc4cc(C(F)(F)F)ccn4n3)C2)c(F)c1 [Example 183] | −48.90 | 8.8 | 26700 | 3 | 3.5 | 6130 | 0.7
